Experiment [1] addresses T1, Human vitronectin receptor (αvβ3) (Homo sapiens, UniProt P05106+P06756).
T1 construct: Human vitronectin receptor (αvβ3) was purified from human placenta as previously described; from tissue; host or cells: human placenta
In words: Vitronectin adhesion assay (solid phase receptor assay, competition with biotinylated vitronectin). In kind it is binding. Here is the method:
Vitronectin Adhesion Assay
Human vitronectin receptor (αvβ3) was purified from human placenta as previously described [Pytela et al., Methods in Enzymology, 144:475-489 (1987)]. Human vitronectin was purified from fresh frozen plasma as previously described [Yatohgo et al., Cell Structure and Function, 13:281-292 (1988)]. Biotinylated human vitronectin was prepared by coupling NHS-biotin from Pierce Chemical Company (Rockford, Ill.) to purified vitronectin as previously described [Charo et al., J. Biol. Chem., 266(3):1415-1421 (1991)]. Assay buffer, OPD substrate tablets, and RIA grade BSA were obtained from Sigma (St. Louis, Mo.). Anti-biotin antibody was obtained from Calbiochem (La Jolla, Calif.). Linbro microtiter plates were obtained from Flow Labs (McLean, Va.). ADP reagent was obtained from Sigma (St. Louis, Mo.).
(§1) Solid Phase Receptor Assays
This assay was essentially the same as previously reported [Niiya et al., Blood, 70:475-483 (1987)]. The purified human vitronectin receptor (αvβ3) was diluted from stock solutions to 1.0 μg/mL in Tris-buffered saline containing 1.0 mM Ca^++, Mg^++, and Mn^++, pH 7.4 (TBS^+++). The diluted receptor was immediately transferred to Linbro microtiter plates at 100 μL/well (100 ng receptor/well). The plates were sealed and incubated overnight at 4° C. to allow the receptor to bind to the wells. All remaining steps were at room temperature. The assay plates were emptied and 200 μL of 1% RIA grade BSA in TBS^+++ (TBS^+++/BSA) were added to block exposed plastic surfaces. Following a 2 hour incubation, the assay plates were washed with TBS^+++ using a 96 well plate washer. Logarithmic serial dilution of the test compound and controls were made starting at a stock concentration of 2 mM and using 2 nM biotinylated vitronectin in TBS^+++/BSA as the diluent. This premixing of labeled ligand with test (or control) ligand, and subsequent transfer of 50 μL aliquots to the assay plate was carried out with a CETUS Propette robot; the final concentration of the labeled ligand was 1 nM and the highest concentration of test compound was 1.0×10^−4 M. The competition occurred for two hours after which all wells were washed with a plate washer as before. Affinity purified horseradish peroxidase labeled goat anti-biotin antibody was diluted 1:3000 in TBS^+++/BSA and 125 μL were added to each well. After 30 minutes, the plates were washed and incubated with OPD/H2O2 substrate in 100 mM/L Citrate buffer, pH 5.0. The plate was read with a microtiter plate reader at a wavelength of 450 nm and when the maximum-binding control wells reached an absorbance of about 1.0, the final A450 were recorded for analysis. The data were analyzed using a macro written for use with the EXCEL™ spreadsheet program. The mean, standard deviation, and %CV were determined for duplicate concentrations. The mean A450 values were normalized to the mean of four maximum-binding controls (no competitor added) (B-MAX). The normalized values were subjected to a four parameter curve fit algorithm [Rodbard et al., Int.

Experiment [2] concerns the target T2, Human fibrinogen receptor (αIIbβ3) (Homo sapiens, UniProt P05106+P08514).
T2 construct: Human fibrinogen receptor (αIIbβ3) was purified from outdated platelets; from tissue; host or cells: outdated (human) platelets
Nature of the experiment: Purified IIb/IIIa receptor assay (solid phase receptor assay, competition with biotinylated vitronectin). In kind it is binding. As to conditions: purified human αIIbβ3 from platelets; 1 nM biotinylated vitronectin; highest concentration 1.0×10^−4 M.
From the text: Purified IIb/IIIa Receptor Assay
Human fibrinogen receptor (αIIbβ3) was purified from outdated platelets. (Pytela, R., Pierschbacher, M. D., Argraves, S., Suzuki, S., and Rouslahti, E. “Arginine-Glycine-Aspartic acid adhesion receptors”, Methods in Enzymology 144(1987):475-489.) Human vitronectin was purified from fresh frozen plasma as described in Yatohgo, T., Izumi, M., Kashiwagi, H., and Hayashi, M., “Novel purification of vitronectin from human plasma by heparin affinity chromatography,” Cell Structure and Function 13(1988):281-292. Biotinylated human vitronectin was prepared by coupling NHS-biotin from Pierce Chemical Company (Rockford, Ill.) to purified vitronectin as previously described. (Charo, I. F., Nannizzi, L., Phillips, D. R., Hsu, M. A., Scarborough, R. M., “Inhibition of fibrinogen binding to GP IIb/IIIa by a GP IIIa peptide”, J. Biol. Chem. 266(3)(1991): 1415-1421.) Assay buffer, OPD substrate tablets, and RIA grade BSA were obtained from Sigma (St. Louis, Mo.). Anti-biotin antibody was obtained from Calbiochem (La Jolla, Calif.). Linbro microtiter plates were obtained from Flow Labs (McLean, Va.). ADP reagent was obtained from Sigma (St. Louis, Mo.).
as §1
This assay is essentially the same reported in Niiya, K., Hodson, E., Bader, R., Byers-Ward, V. Koziol, J. A., Plow, E. F. and Ruggeri, Z. M., “Increased surface expression of the membrane glycoprotein IIb/IIIa complex induced by platelet activation: Relationships to the binding of fibrinogen and platelet aggregation”, Blood 70(1987):475-483. The purified human fibrinogen receptor (αIIbβ3) was diluted from stock solutions to 1.0 μg/mL in Tris-buffered saline containing 1.0 mM Ca^++, Mg^++, and Mn^++, pH 7.4 (TBS^+++). The diluted receptor was immediately transferred to Linbro microtiter plates at 100 μL/well (100 ng receptor/well). The plates were sealed and incubated overnight at 4° C. to allow the receptor to bind to the wells. All remaining steps were at room temperature. The assay plates were emptied and 200 μL of 1% RIA grade BSA in TBS^+++ (TBS^+++/BSA) were added to block exposed plastic surfaces. Following a 2 hour incubation, the assay plates were washed with TBS^+++ using a 96 well plate washer. Logarithmic serial dilution of the test compound and controls were made starting at a stock concentration of 2 mM and using 2 nM biotinylated vitronectin in TBS^+++/BSA as the diluent. This premixing of labeled ligand with test (or control) ligand, and subsequent transfer of 50 μL aliquots to the assay plate was carried out with a CETUS Propette robot; the final concentration of the labeled ligand was 1 nM and the highest concentration of test compound was 1.0×10^−4 M. The competition occurred for two hours after which all wells were washed with a plate washer as before. Affinity purified horseradish peroxidase labeled goat anti-biotin antibody was diluted 1:3000 in TBS^+++/BSA and 125 μL were added to each well. After 30 minutes, the plates were washed and incubated with […] substrate in 100 mM/L citrate buffer, pH 5.0. The plate was read with a microtiter plate reader at a wavelength of 450 nm and when the maximum-binding control wells reached an absorbance of about 1.0, the final A450 were recorded for analysis. The data were analyzed using a macro written for use with the EXCEL™ spreadsheet program. The mean, standard deviation, and %CV were determined for duplicate concentrations. The mean A450 values were normalized to the mean of four maximum-binding controls (no competitor added) (B-MAX). The normalized values were subjected to a four parameter curve fit algorithm, [Robard et al., Int.

Experiment [3] has as its system Human platelet rich plasma. Nature of the experiment: Human platelet rich plasma assay (ADP induced platelet aggregation). In kind it is cell-based. As to conditions: concentration of half-maximal inhibition, read-out: Human PRP. Here is the method: Human Platelet Rich Plasma Assays
Healthy aspirin free donors were selected from a pool of volunteers. The harvesting of platelet rich plasma and subsequent ADP induced platelet aggregation assays were performed as described in Zucker, M. B., “Platelet Aggregation Measured by the Photometric Method”, Methods in Enzymology 169(1989):117-133. Standard venipuncture techniques using a butterfly allowed the withdrawal of 45 mL of whole blood into a 60 mL syringe containing 5 mL of 3.8% trisodium citrate. Following thorough mixing in the syringe, the anti-coagulated whole blood was transferred to a 50 mL conical polyethylene tube. The blood was centrifuged at room temperature for 12 minutes at 200×g to sediment non-platelet cells. Platelet rich plasma was removed to a polyethylene tube and stored at room temperature until used. Platelet poor plasma was obtained from a second centrifugation of the remaining blood at 2000×g for 15 minutes. Platelet counts are typically 300,000 to 500,000 per microliter. Platelet rich plasma (0.45 mL) was aliquoted into siliconized cuvettes and stirred (1100 rpm) at 37° C. for 1 minute prior to adding 50 uL of pre-diluted test compound. After 1 minute of mixing, aggregation was initiated by the addition of 50 uL of 200 uM ADP. Aggregation was recorded for 3 minutes in a Payton dual channel aggregometer (Payton Scientific, Buffalo, N.Y.). […]

Setting [4] is: purified human αvβ3 from placenta, 1 nM biotinylated vitronectin, highest concentration 1.0×10^−4 M, read-out: AvB3 IC50.

Structures can show the parent of a compound that is named as a salt. Where two headings read alike, the source gives them in different places.

`C=CC(CC(=O)O)NS(=O)(=O)c1cccc(NC(=O)c2cccc(NC(=N)N)c2)c1` (racemic) [Example 3, (±) 3-[[[3-[[[3-[(Aminoiminomethyl)amino]phenyl]-carbonyl]amino]phenyl]sulfonyl]amino]-4-pentenoic Acid, Trifluoroacetate Salt]: the IC50 in experiment [1] (setting [4]) worked out at 5.34 nM; in experiment [2], 11.6 nM.

In the case of `N=C(N)Nc1cccc(C(=O)Nc2cccc(S(=O)(=O)NC(CC(=O)O)c3cc(Cl)cc(Cl)c3)c2)c1` (racemic) [Example 4, (±) β-[[[3-[[[3-[(Aminoiminomethyl)amino]phenyl]-carbonyl]amino]phenyl]sulfonyl]amino]-3,5-dichlorobenzene Propanoic Acid, Trifluoroacetate Salt], the IC50 was 659 nM in experiment [1] (setting [4]) and 987 nM in experiment [2].

`N=C(N)Nc1cccc(C(=O)Nc2cccc(S(=O)(=O)NC(CC(=O)O)c3ccccc3)c2)c1` (stereo not drawn) [Example 1, β-[[[3-[[[3-[(Aminoiminomethyl)amino]phenyl]carbonyl]amino]phenyl]sulfonyl]amino]-benzenepropanoic Acid, Trifluoroacetate Salt]: the IC50 is 1.66 nM in experiment [1] (setting [4]), 11.3 nM in experiment [2] and > 200000 nM in experiment [3].

For `N=C(N)Nc1cccc(C(=O)Nc2cccc(S(=O)(=O)NC(CC(=O)O)c3cccnc3)c2)c1` (stereo not drawn) [Example 5, β-[[[3-[[[3-[(Aminoiminomethyl)amino]phenyl]-carbonyl]amino]phenyl]sulfonyl]amino]pyridine-3-propanoic Acid, tris(Trifluoroacetate) Salt], the IC50 in experiment [1] (setting [4]) was found to be 4.66 nM; in experiment [2], 24.7 nM.

For `N=C(N)Nc1cccc(C(=O)Nc2cccc(S(=O)(=O)N3CCCCC3CC(=O)O)c2)c1` (stereo not drawn) [Example 6, 1-[[3-[[[3-[(Aminoiminomethyl)amino]phenyl]carbonyl]-amino]phenyl]sulfonyl]piperidine-2-acetic Acid, Trifluoroacetate Salt], the results for the IC50 in experiment [1] (setting [4]) and in experiment [2] were 183 nM and 3920 nM, respectively.

Take `C#C[C@H](CC(=O)O)NS(=O)(=O)c1cccc(NC(=O)c2cccc(NC3=NCCN3)c2)c1` [Example 7, 3S-[[[3-[[[3-[(4,5-Dihydro-1H-imidazol-2-yl)amino]-phenyl]carbonyl]amino]phenyl]sulfonyl]amino]-4-pentynoic Acid, Trifluoroacetate Salt]: the IC50 was 15 nM in experiment [1] (setting [4]) and 418 nM in experiment [2].

Consider `C#CC(CC(=O)O)NS(=O)(=O)c1cccc(NC(=O)c2cccc(NC(=N)N)c2)c1` (stereo not drawn) [Example 8, 3-[[[3-[[[3-[(Aminoiminomethyl)amino]phenyl]-carbonyl]amino]phenyl]sulfonyl]amino]-4-pentynoic Acid, Trifluoroacetate Salt], for which the figures for the IC50 in experiment [1] (setting [4]) and in experiment [2] were 11.3 nM and 38.2 nM, respectively.

For the compound `N=C(N)Nc1cccc(S(=O)(=O)Nc2cccc(S(=O)(=O)NC(CC(=O)O)c3ccccc3)c2)c1` (stereo not drawn) [Example 9, β-[[[3-[[[3-[(Aminoiminomethyl)amino]phenyl]-sulfonyl]amino]phenyl]sulfonyl]amino]phenyl-propanoic Acid, Trifluoroacetate Salt], the IC50 was determined as 29.3 nM in experiment [1] (setting [4]) and 93.6 nM in experiment [2].

For the compound “β-[[2-[[5-[(aminoiminomethyl)amino]-1-oxopentyl]amino]-1-oxoethyl]amino]-3-pyridinepropanoic acid [reference compound]”, in experiment [1] (positive control included on each plate, read-out: IC50 (αvβ3 antagonist, positive control)), the IC50 was in the range of 3 to 10 nM.

Values taken from US6677308B1, “Meta-substituted phenylene sulphonamide derivatives” (G. D. Searle & Co., priority 1996, dated 2004).
